Where two headings read alike, the source gives them in different places.
Key:
CCRF-CEM cells [1] = test: BrU incorporation analysis (RNA synthesis); type: cell-based, human; settings: % of positive cells
Protocol: The cells were cultured and processed as described above. Before harvesting, the cells were pulse-labeled with 1 mM of 5-bromouridine (BrU) for 30 min. The cells were then fixed in 1% buffered paraformaldehyde with 0.05% NP-40 at room temperature for 15 min, and then stored at 4 °C overnight. Before measurement, they were washed with 1% glycine in PBS, washed again with PBS, and stained with primary anti-BrdU antibody cross-reactive to BrU (Exbio) for 30 min at room temperature in the dark. From this point on, the experiment was performed exactly as in the method described above.

CCRF-CEM cells [2] = test: Cell cycle arrest and cell death analysis by flow cytometry (propidium iodide, pH3Ser10); type: cell-based, human; settings: % of positive cells
Protocol: Together with the CG-treated cells, a vehicle-treated sample was harvested at the same time point. After 24 h, the cells were washed with cold phosphate-buffered saline, fixed dropwise in 70% ethanol, and stored overnight at −20 °C. The cells were then washed with hypotonic citrate buffer, treated with RNAse (50 µg mL^−1), and stained with propidium iodide. Flow cytometry using a 488 nm laser (FACS-Calibur, Becton Dickinson, NJ, USA) was used for measurement. The cell cycle was analyzed by the ModFitLT program (Verity), and apoptosis was measured in a logarithmic model expressing the percentage of particles with a lower propidium content than cells in the G0/G1 phase (<G1) of the cell cycle in the CellQuest program (Becton Dickinson). Half of the sample was used to label cells with pH3^Ser10-FITC antibody (Exbio) for subsequent flow cytometry analysis of mitotic cells.

U-2 OS = test: MTS cytotoxic assay, U-2 OS; type: cell-based; settings: Homo sapiens, U2OS, 72 h
Description: (§1) If not indicated otherwise, the cell lines were purchased from the American Type Culture Collection (ATCC). […] K562 is the erythroid-myeloid precursor cell line derived from chronic myeloid leukemia carrying the BCR-ABL hybrid gene. A549, MCF-7, PC-3, 5637, U-2 OS, and MiaPaCa-2 are cells derived from lung, breast, prostate, bladder carcinoma, osteosarcoma, and pancreatic adenocarcinoma, respectively. HEK 293T are transformed human embryonic kidney cells, and L929 (Sigma, St. Louis, MS, USA) are transformed mouse fibroblasts. HCT116, cells from colorectal carcinoma, and their p53 gene knock-out variant (HCT116p53-/-) were purchased from Horizon Discovery. This cell line is a model of human tumors bearing p53 loss-of-function mutations or biallelic deletion of the p53 gene, frequently associated with poor prognosis. The MRC-5 and BJ cells were used as noncancerous cells; more specifically, they are human fibroblasts from the lungs and foreskin, respectively. According to the supplier’s recommendations, all cells were cultured at 37 °C in a 5% CO2 atmosphere and 100% humidity. The culture media used were: DMEM, RPMI 1640, and MEM (according to a cell line); all were supplemented with 5 g L^−1 glucose, 10% fetal calf serum, 2 mM glutamine, 100 U mL^−1 penicillin, 100 µg mL^−1 streptomycin, and NaHCO3. Cells were passaged every two or three days using 0.25% trypsin plus 0.01% EDTA (ethylenediamine tetraacetic acid) in phosphate-buffered saline.
(§2) To evaluate compound cytotoxicity, cells were seeded in 384-well microtiter plates in a volume of […]. The next day, aliquots of the tested derivatives were transferred with Echo550 acoustic liquid handler (Labcyte) to obtain dose response curves with dilution factor 4. The experiments were performed in technical duplicates and three or more biological replicates. After 72 h of incubation in a humidified incubator, […] of the MTS/PMS stock solution were pipetted into each well. After another 1–4 h of incubation, the absorbance at 490 nm was measured using an EnVision Multilabel Plate Reader (PerkinElmer).

HEK 293T = test: MTS cytotoxic assay, HEK 293T; type: cell-based; settings: Homo sapiens, 72 h
Description: as §1, §2

BJ = test: MTS cytotoxic assay, BJ; type: cell-based; settings: Homo sapiens, 72 h
Description: as §1, §2

K562 = test: MTS cytotoxic assay, K562; type: cell-based; settings: Homo sapiens
Description: as §1, §2

5637 = test: MTS cytotoxic assay, 5637; type: cell-based; settings: Homo sapiens, 72 h
Description: as §1, §2

HCT116 = test: MTS cytotoxic assay, HCT116; type: cell-based; settings: Homo sapiens
Description: as §1, §2

MCF-7 = test: MTS cytotoxic assay, MCF-7; type: cell-based; settings: Homo sapiens
Description: as §1, §2

PC-3 = test: MTS cytotoxic assay, PC-3; type: cell-based; settings: Homo sapiens
Description: as §1, §2

SH-SY5Y cells = test system: SH-SY5Y cells; set-up: method as in PMID 25838173; settings: cited from earlier work
[3] = test system: rat vascular smooth muscle cells, endothelial cells, and astrocytes; set-up: method as in PMID 26067145; settings: high concentrations of Ob (3–3000 μM) ref 54; cited from earlier work

## C[C@]12CC[C@H]3[C@@H](CCC4=C[C@@H](O[C@@H]5OC[C@@H](O[C@@H]6O[C@H](CO)[C@@H](O)[C@H](O)[C@H]6O)[C@H](O)[C@H]5O)CC[C@@]43C=O)[C@@]1(O)CC[C@@H]2C1=CC(=O)OC1 [Hyr, (3β)-3-[(4-O-β-D-glucopyranosyl-β-D-xylopyranosyl)oxy]-14-hydroxy-19-oxocarda-4,20(22)-dienolide]
CCRF-CEM cells [1]; 1 × IC50, 24 h
  BrU: 28.80%
CCRF-CEM cells [1]; 5 × IC50, 24 h
  BrU: 3.82%
CCRF-CEM cells [2]; 1 × IC50, 24 h
  < G1 (apoptotic cells): 2.82%
  G0/G1: 38.48%
  G2/M: 26.30%
  M (Phospho-Histone3 (Ser10)): 1.41%
  S: 35.22%
CCRF-CEM cells [2]; 5 × IC50, 24 h
  < G1 (apoptotic cells): 5.82%
  G0/G1: 42.13%
  G2/M: 34.86%
  M (Phospho-Histone3 (Ser10)): 0.95%
  S: 23.01%
U-2 OS
  IC50: 1100 ± 59 nM
HEK 293T; HEK-293T
  IC50: 383 ± 8.9 nM
BJ; BJ
  IC50: 1450 ± 250 nM
K562; K562, 72 h
  IC50: 800 ± 52 nM
5637
  IC50: 1510 ± 51 nM
HCT116; HCT-116, 72 h
  IC50: 670 ± 37 nM
MCF-7; MCF7, 72 h
  IC50: 566 ± 29 nM
PC-3; PC-3, 72 h
  IC50: 756 ± 29 nM

## C[C@@H]1O[C@@H](O[C@H]2C[C@@H](O)[C@]3(CO)[C@H]4[C@H](O)C[C@]5(C)[C@@H](C6=CC(=O)OC6)CC[C@]5(O)[C@@H]4CC[C@]3(O)C2)[C@H](O)[C@H](O)[C@H]1O [Ob, ouabain]
CCRF-CEM cells [1]; 1 × IC50, 24 h
  BrU: 39.77%
CCRF-CEM cells [1]; 5 × IC50, 24 h
  BrU: 6.56%
CCRF-CEM cells [2]; 1 × IC50, 24 h
  < G1 (apoptotic cells): 20.68%
  G0/G1: 40.42%
  G2/M: 33.80%
  M (Phospho-Histone3 (Ser10)): 1.73%
  S: 25.78%
CCRF-CEM cells [2]; 5 × IC50, 24 h
  < G1 (apoptotic cells): 33.31%
  G0/G1: 33.94%
  G2/M: 25.27%
  M (Phospho-Histone3 (Ser10)): 0.63%
  S: 40.80%
U-2 OS; U-2 OS, MTS, read-out: IC50
  IC50: 59 ± 1.1 nM
HEK 293T; HEK 293T, MTS, read-out: IC50
  IC50: 35 ± 1.2 nM
SH-SY5Y cells; 24 h ref 53
  reduction of viability: 40%
SH-SY5Y cells; 48 h ref 53
  reduction of viability: 10%
BJ; BJ noncancerous foreskin fibroblasts, MTS, read-out: IC50
  IC50: 54 ± 9.9 nM
K562; K562, MTS, 72 h, read-out: IC50
  IC50: 57 ± 6.2 nM
[3]
  survival of rodent cells (in words): perfectly survived
5637; 5637, MTS, read-out: IC50
  IC50: 110 ± 11 nM
HCT116; HCT-116, HCT116, MTS, 72 h, read-out: IC50
  IC50: 30 ± 3.6 nM
MCF-7; MCF7, MCF-7, MTS, 72 h, read-out: IC50
  IC50: 52 ± 5.6 nM
PC-3; PC-3, MTS, 72 h, read-out: IC50
  IC50: 49 ± 1.4 nM

## C[C@]12CC[C@H]3[C@@H](CCC4=C[C@@H](O[C@@H]5OC[C@@H](O)[C@H](O)[C@H]5O)CC[C@@]43C=O)[C@@]1(O)CC[C@@H]2C1=CC(=O)OC1 [deHyr, deglucohyrcanoside]
CCRF-CEM cells [1]; 1 × IC50, 24 h
  BrU: 38.91%
CCRF-CEM cells [1]; 5 × IC50, 24 h
  BrU: 12.17%
CCRF-CEM cells [2]; 1 × IC50, 24 h
  < G1 (apoptotic cells): 22.02%
  G0/G1: 44.90%
  G2/M: 37.50%
  M (Phospho-Histone3 (Ser10)): 1.44%
  S: 17.60%
CCRF-CEM cells [2]; 5 × IC50, 24 h
  < G1 (apoptotic cells): 27.43%
  G0/G1: 39.12%
  G2/M: 26.34%
  M (Phospho-Histone3 (Ser10)): 1.56%
  S: 34.53%
U-2 OS
  IC50: 165 ± 11 nM
HEK 293T; HEK-293T
  IC50: 38 ± 0.97 nM
BJ; BJ
  IC50: 230 ± 35 nM
K562; K562, 72 h
  IC50: 130 ± 21 nM
5637
  IC50: 398 ± 46 nM
HCT116; HCT-116, 72 h
  IC50: 140 ± 16 nM
MCF-7; MCF7, 72 h
  IC50: 119 ± 6.4 nM
PC-3; PC-3, 72 h
  IC50: 122 ± 4.7 nM

## CO[C@H]1C[C@H](O[C@H]2CC[C@]3(C=O)[C@H]4CC[C@]5(C)[C@@H](C6=CC(=O)OC6)CC[C@]5(O)[C@@H]4CC[C@]3(O)C2)O[C@H](C)[C@H]1O [Cy, cymarin]
CCRF-CEM cells [1]; 1 × IC50, 24 h
  BrU: 35.63%
CCRF-CEM cells [1]; 5 × IC50, 24 h
  BrU: 27.52%
CCRF-CEM cells [2]; 1 × IC50, 24 h
  < G1 (apoptotic cells): 2.89%
  G0/G1: 35.78%
  G2/M: 24.35%
  M (Phospho-Histone3 (Ser10)): 1.43%
  S: 39.87%
CCRF-CEM cells [2]; 5 × IC50, 24 h
  < G1 (apoptotic cells): 7.01%
  G0/G1: 40.34%
  G2/M: 28.49%
  M (Phospho-Histone3 (Ser10)): 1.08%
  S: 31.17%
U-2 OS
  IC50: 43 ± 1.8 nM
HEK 293T; HEK-293T
  IC50: 3.02 ± 1.4 nM
BJ; BJ
  IC50: 54 ± 10 nM
K562; K562, 72 h
  IC50: 25 ± 4.5 nM
5637
  IC50: 89 ± 5.5 nM
HCT116; HCT-116, 72 h
  IC50: 21 ± 2.5 nM
MCF-7; MCF7, 72 h
  IC50: 29 ± 8.1 nM
PC-3; PC-3, 72 h
  IC50: 26 ± 2.9 nM

Source: PMC7827417, “Steroid Glycosides Hyrcanoside and Deglucohyrcanoside: On Isolation, Structural Identification, and Anticancer Activity” (Foods, 2021)
